The values below come from patent publication US20240150322A1, “CDK9 Inhibitors” (Biolexis Therapeutics, Inc., priority 2022, published 2024).

Each structure is given as a SMILES string. A value given as a limit tells only on which side of the number the result lay.

As a reminder, the IC50 is the concentration that inhibits the measured activity by half. A high value points to lower potency.

Data set [1] deals with T1, CDK9/CycT1 (Homo sapiens, UniProt P50750).
T1 construct: purchased SignalChem
The experiment in a line: ADP-Glo kinase assay. Type of data set: biochemical. As for the experimental part: ADP-Glo assay kit was purchased from Promega and the CDK9/CycT1 protein and PDKtide substrate were purchased from SignalChem. […] The reaction was started by pre-incubating 4 μL of protein (20 nM), 2 μL of substrate (100 μM), and 2 μL of serial diluted drug in 1× assay buffer (50 mM HEPES, 3 mM MgCl2, 3 mM MnCl2, and 1 mM DTT) for 30 minutes. After pre-incubating, 4 μL of ATP (1 μM) was added to each well and incubated for an additional 90 minutes. The ADP-Glo Reagent (10 μL) and Kinase Detection Reagent (20 μL) were added to each well and incubated as recommended by Promega. The reaction was quantified by measuring luminescence and the IC50 was calculated using GraphPad Prism software.
For orientation: ADP-Glo turns the ADP formed in a reaction into a luminescent signal.

For data set [2], the system named is RWPE-1 Normal Prostate Cells. Briefly: CellTiter-Glo 2D cell viability assay in normal prostate cells. It counts as cell-based. The protocol:
(§1) Multiplexing the LDH-Glo Cytotoxicity Assay and CellTiter-Glo 2D Cell Viability Assay. […] Change in toxicity was measured using the LDH-Glo Cytotoxicity Assay by combining 50 μL diluted samples with 50 μL LDH Detection Reagent and recording luminescence after 1 hour incubation. After samples were removed for LDH measurement, an equal volume of CellTiter Glo 2D Reagent was added to the remaining cell suspension and luminescence was recorded after 30-minute incubation period.

Data set [3] deals with LNCap. Briefly: 2D CellTiter-Glo cell viability assay. It counts as cell-based. The conditions noted are these: Homo sapiens, 72 hours. The protocol: (§2) CellTiter-Glo® 2.0 Luminescent cell viability assay reagent was purchased from Promega and 22Rv1 and LASCPC-01 cell lines were purchased from ATCC. […] An equal volume of CellTiter-Glo 2D Reagent was added to the cell suspensions and luminescence was recorded after 30-minute incubation period. […] FIG. 2 illustrates cellular antiproliferative efficacy of a benchmark CDK9 inhibitor AD-4573 on six prostate cancer cell lines over various concentrations.
(§3) CellTiter-Glo® 2.0 Luminescent cell viability assay reagent was purchased from Promega and 22Rv1, LASCPC-01, C4-2, C4-2B and NCI-H660, DU-145, PC-3 and LNCap cell lines were obtained from ATCC and a clinical core facility at Huntsman Cancer Institute. […] The results of cell viability were obtained and IC50 values were calculated (see Table 5, below) showing sub-micromolar cell killing of these prostate cancer cells.
On the technique in general: ATP-based viability assays read luminescence as a measure of living cells.

Data set [4] relates to 22Rv1. Briefly: 2D CellTiter-Glo cell viability assay. Type of data set: cell-based. The following applies: Homo sapiens; 22Rv1, 72 hours. As for the experimental part:
as §2, §3

The test system of data set [5] is NCI-H660. Briefly: 2D CellTiter-Glo cell viability assay. Type of data set: cell-based. The following applies: NCI-H660, 72 hours. The protocol:
as §2, §3

Data set [6] deals with PC-3. The experiment in a line: 2D CellTiter-Glo cell viability assay. It counts as cell-based. The following applies: Homo sapiens, PC-3, 72 h. The protocol:
as §2, §3

Data set [7] concerns LASCPC-01. The experiment in a line: 2D CellTiter-Glo cell viability assay. It counts as cell-based. The following applies: 72 h, LASCPC-01, 72 hours. As for the experimental part:
as §2, §3

The test system of data set [8] is DU-145. The experiment in a line: 2D CellTiter-Glo cell viability assay. Type of data set: cell-based. The following applies: Homo sapiens; DU-145, 72 hours. As for the experimental part:
as §2, §3

Data set [9] deals with C4-2B. Briefly: 2D CellTiter-Glo cell viability assay. It counts as cell-based. The following applies: 72 h. As for the experimental part:
as §3

For data set [10], the system named is RWPE-1 Normal Prostate Cells. The experiment in a line: LDH-Glo cytotoxicity assay in normal prostate cells. Type of data set: cell-based. The conditions noted are these: Homo sapiens, 72 hours. The protocol: as §1
For data set [11], the system named is C4-2. Briefly: 2D CellTiter-Glo cell viability assay. It counts as cell-based, human. The conditions noted are these: Homo sapiens, C4-2, 72 h. The protocol: as §3

T1 sequence (P50750 whole entry): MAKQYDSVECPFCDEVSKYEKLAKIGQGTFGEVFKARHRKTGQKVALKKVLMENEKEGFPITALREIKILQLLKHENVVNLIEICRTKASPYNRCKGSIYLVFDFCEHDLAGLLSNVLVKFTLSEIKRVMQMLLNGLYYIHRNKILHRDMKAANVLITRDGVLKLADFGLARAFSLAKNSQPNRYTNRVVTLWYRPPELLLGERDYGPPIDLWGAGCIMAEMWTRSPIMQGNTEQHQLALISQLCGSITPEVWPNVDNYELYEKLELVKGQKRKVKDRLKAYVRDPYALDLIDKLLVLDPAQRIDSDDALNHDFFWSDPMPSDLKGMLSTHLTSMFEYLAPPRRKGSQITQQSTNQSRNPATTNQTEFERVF
T1 sequence (O60563 whole entry partner): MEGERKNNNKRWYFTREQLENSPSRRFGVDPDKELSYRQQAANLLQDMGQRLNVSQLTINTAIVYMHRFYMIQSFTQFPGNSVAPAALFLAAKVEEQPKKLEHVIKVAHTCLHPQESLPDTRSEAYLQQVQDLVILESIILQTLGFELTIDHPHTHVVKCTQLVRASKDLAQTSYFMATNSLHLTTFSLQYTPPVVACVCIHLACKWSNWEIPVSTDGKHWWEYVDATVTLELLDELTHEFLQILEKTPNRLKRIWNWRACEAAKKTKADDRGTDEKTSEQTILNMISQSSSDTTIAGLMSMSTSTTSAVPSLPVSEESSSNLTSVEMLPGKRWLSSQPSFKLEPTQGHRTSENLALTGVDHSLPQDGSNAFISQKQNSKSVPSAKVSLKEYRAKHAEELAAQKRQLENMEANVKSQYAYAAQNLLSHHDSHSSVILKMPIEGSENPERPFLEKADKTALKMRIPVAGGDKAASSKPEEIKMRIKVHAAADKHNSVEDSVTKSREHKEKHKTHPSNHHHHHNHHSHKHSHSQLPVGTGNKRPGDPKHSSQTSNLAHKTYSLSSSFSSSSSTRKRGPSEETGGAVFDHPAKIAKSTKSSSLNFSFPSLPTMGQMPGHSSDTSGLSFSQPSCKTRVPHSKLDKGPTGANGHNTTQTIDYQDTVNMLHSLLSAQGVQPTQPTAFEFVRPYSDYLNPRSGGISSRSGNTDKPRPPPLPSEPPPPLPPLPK

For `CC(C)c1nn(C)c2ncc(-c3ccnc(N[C@H]4CC[C@H](N)C4)n3)cc12` [Compound I-11, (1S,3S)-N^1-(4-(3-isopropyl-1-methyl-1H-pyrazolo[3,4-b]pyridin-5-yl)pyrimidin-2-yl)cyclopentane-1,3-diamine], the IC50 in data set [1] was greater than 1000 nM.
Still for that read-out and setting: to `CC(C)c1c2cc(-c3ccnc(N[C@H]4CC[C@H](N)C4)n3)cc(F)c2nn1C` [Compound I-4, (1S,3S)-[3-[4-(7-fluoro-3-isopropyl-2-methylindazol-5-yl)pyrimidin-2-yl]aminocyclopentan-1-yl]-1,3-diamine] belongs less than 50 nM; to `CC(C)c1c2cc(-c3ccnc(N[C@H]4CC[C@H](N)C4)n3)cnc2nn1C` [Compound I-10, (1S,3S)-N^1-(4-(3-isopropyl-2-methyl-2H-pyrazolo[3,4-b]pyridin-5-yl)pyrimidin-2-yl)cyclopentane-1,3-diamine], less than 50 nM.
The compound `CC(C)c1c2cc(-c3ccnc(N[C@@H]4CC[C@H](N)C4)n3)ccc2nn1C` [Compound I-1, (1S,3R)-[3-[4-(3-isopropyl-2-methylindazol-5-yl)pyrimidin-2-yl]aminocyclopentan-1-yl]-1,3-diamine] showed an IC50 in data set [1] of less than 50 nM.
The same measure, in the same setting: to `Cc1[nH]nc2ccc(-c3ccnc(N[C@H]4CC[C@H](N)C4)n3)cc12` [Compound I-9, (1S,3S)-N^1-(4-(3-methyl-2H-indazol-5-yl)pyrimidin-2-yl)cyclopentane-1,3-diamine] belongs 50 to 100 nM; to `CC(C)c1c2cc(-c3ccnc(N[C@H]4C[C@@H]5CCC4C5)n3)ccc2nn1C` (stereo in doubt) [Compound I-13, N-((1R,2S,4R)-bicyclo[2.2.1]heptan-2-yl)-4-(3-isopropyl-2-methyl-2H-indazol-5-yl)pyrimidin-2-amine], less than 50 nM.
Same read-out and setting: with `CC(C)c1c2cc(-c3ccnc(N[C@H]4C[C@@H]5CCC4C5)n3)cnc2nn1C` (stereo in doubt) [Compound I-14, N-((1R,2S,4R)-bicyclo[2.2.1]heptan-2-yl)-4-(3-isopropyl-2-methyl-2H-pyrazolo[3,4-b]pyridin-5-yl)pyrimidin-2-amine] the figure was less than 50 nM; with `CC(C)c1c2nc(-c3ccnc(N[C@H]4CC[C@H](N)C4)n3)ccc2nn1C` [Compound I-3, (1S,3S)-[3-[4-[3-isopropyl-2-methylpyrazolo[4,3-b]pyridin-5-yl]pyrimidin-2-yl]aminocyclopentan-1-yl]-1,3-diamine], greater than 1000 nM; with `CC(C)c1[nH]nc2ccc(-c3ccnc(N[C@H]4CC[C@H](N)C4)n3)cc12` [Compound I-7, (1S,3S)-N^1-(4-(3-isopropyl-2H-indazol-5-yl)pyrimidin-2-yl)cyclopentane-1,3-diamine], less than 50 nM.
On the same count and under the same terms, to `Cn1cc2cc(-c3ccnc(N[C@H]4CC[C@H](N)C4)n3)ccc2n1` [Compound I-6, (1S,3S)-N^1-(4-(2-methyl-2H-indazol-5-yl)pyrimidin-2-yl)cyclopentane-1,3-diamine] belongs less than 50 nM.
In the case of `CC(=O)N[C@@H]1CCC[C@H](C(=O)Nc2cc(-c3cnn4c3CC(C)(C)C4)c(Cl)cn2)C1` [AZD-4573, reference compound], the IC50 turned out to be 8.4 nM in data set [2] (Homo sapiens, RWPE-1 normal prostate cells, 72 hours); 1150 nM in data set [3]; 67.1 nM in data set [4]; 0.221 nM in data set [5]; 400 nM in data set [6]; 13.5 nM in data set [7]. Further, the IC50 in data set [8] was found to be 151 nM; in [9] it was 0.398 nM; in data set [10] it was 151 nM; in [11] it was 0.237 nM. In addition, in data set [2] (RWPE-1), the “toxicity to normal prostate cells” value is “highly toxic”.
